Measurements as given in patent US20180155757A1, “IDENTIFICATION OF BACTERIA THAT ARE RESISTANT TO CARBAPENEMS BY MEMBRANE IMPERVIOUSNESS” (BIOMÉRIEUX, priority 2015, published 2018).
Where two headings read alike, the source gives them in different places.

Legend:
Assay in all cases: Etest MIC of indicator carbapenems on MH II agar without/with PMBN
Format in all cases: cell-based
E. coli 1204043 = test system: E. coli 1204043
Method: (§1) The determinations of antibiotic MIC were carried out on solid culture media with the Etest® method. To do this, Etest® strips (bioMérieux, France) were used: • Etest® Imipenem IM 32, and • Etest® Ertapenem ETP 32, and also solid culture media, differing from one another by virtue of their non-inhibitory concentrations of PMBN.
(§2) These solid culture media are prepared in Petri dishes (0=145 mm; V=50 ml) on a base of MH II Agar (Becton Dickinson®, United States), more or less supplemented with PMBN. The PMBN concentrations range from 0 up to concentrations equivalent to one fifth of the MIC of PMBN (⅕ MICPMBN).
(§3) Using a swab and the Retro C80™ rota-plater (bioMérieux, France), the culture media were inoculated with the bacteria, originating from an inoculum of 0.5 McFarland, prepared in 0.85% NaCl solution from colonies subcultured the day before on MH II agar.
(§4) The various Etest® strips are then deposited on the surface of the culture media. After 16 to 20 hours of incubation at 35° C., the MICS were read.
(§5) To do this, imipenem and ertapenem were used as indicator carbapenems. Non-inhibitory concentrations of PMBN, equivalent to concentrations of one tenth ( 1/10), one eighth (⅛) and one fifth (⅕) of the MIC of PMBN, were applied.
(§6) In the light of the MICPMBN values previously identified, very predominantly much higher than 300 μg/ml, the following standard concentrations were retained and applied to the bacterial strains to be tested: 50, 100, 150, 200 and 300 μg/ml.
(§7) By way of indicator carbapenems according to the invention, in addition to imipenem (IM) and ertapenem (ETP), meropenem (MP) was also tested. Like the other two antibiotics, meropenem was used in the form of Etest® strips (Etest® Meropenem MP 32 from the company bioMérieux, France).
(§8) The methods used to prepare the new culture media and to carry out the antibiotic-sensitivity tests are identical to those described above.

E. aerogenes 9306071 = test system: E. aerogenes 9306071
Method: as §1, §2, §3, §4, §5, §6, §7, §8

E. aerogenes 9203076 = test system: E. aerogenes 9203076
Method: as §1, §2, §3, §4, §5, §6, §7, §8

K. pneumoniae 1204034 = test system: K. pneumoniae 1204034
Method: as §1, §2, §3, §4, §5, §6, §7, §8

E. cloacae 9402034 = test system: E. cloacae 9402034
Method: as §1, §2, §3, §4, §5, §6, §7, §8

C[C@@H](O)[C@H]1C(=O)N2C(C(=O)O)=C(S[C@@H]3CN[C@H](C(=O)Nc4cccc(C(=O)O)c4)C3)[C@H](C)[C@H]12 [ETP, ertapenem]
MIC (E. coli 1204043; E. coli 1204043 (membrane impermeability), [PMBN] 0, Table 4a, in µg/mL): >32
MIC (E. coli 1204043; E. coli 1204043 (membrane impermeability), [PMBN] 100, Table 4a, in µg/mL): 6
MIC (E. coli 1204043; E. coli 1204043 (membrane impermeability), [PMBN] 200, Table 4a, in µg/mL): 2-4
MIC (E. coli 1204043; E. coli 1204043 (membrane impermeability), [PMBN] 300, Table 4a, in µg/mL): 1.5
MIC (E. coli 1204043; E. coli 1204043, [PMBN] 0, Table 3, in µg/mL): 32
MIC (E. coli 1204043; E. coli 1204043, [PMBN] MIC/5, in µg/mL): 1
MIC (E. coli 1204043; E. coli 1204043, [PMBN] MIC/8, in µg/mL): 2
MIC (E. coli 1204043; E. coli 1204043, [PMBN] MIC/10, in µg/mL): 1
MIC (E. coli 1204043; Escherichia coli, 1204043, E. coli 1204043 (porin−), [PMBN] 0, Table 4, read-out: MIC): > 32 µg/mL
MIC (E. coli 1204043; Escherichia coli, 1204043, E. coli 1204043 (porin−), [PMBN] 150 μg/ml, Table 4, read-out: MIC): 0.38 µg/mL
MIC (E. coli 1204043; Escherichia coli, 1204043, E. coli 1204043 (porin−), [PMBN] 200 μg/ml, Table 4, read-out: MIC): 0.19 µg/mL
MIC (E. aerogenes 9306071; E. aerogenes 9306071 (membrane impermeability), [PMBN] 0, Table 4a): > 32 µg/mL
MIC (E. aerogenes 9306071; E. aerogenes 9306071 (membrane impermeability), [PMBN] 100, Table 4a): 12 µg/mL
MIC (E. aerogenes 9306071; E. aerogenes 9306071 (membrane impermeability), [PMBN] 200, Table 4a): 8 µg/mL
MIC (E. aerogenes 9306071; E. aerogenes 9306071 (membrane impermeability), [PMBN] 300, Table 4a): 4 µg/mL
MIC (E. aerogenes 9306071; E. aerogenes 9306071, [PMBN] 0, Table 3): 32 µg/mL
MIC (E. aerogenes 9306071; E. aerogenes 9306071, [PMBN] MIC/5): 4 µg/mL
MIC (E. aerogenes 9306071; E. aerogenes 9306071, [PMBN] MIC/8): 4 µg/mL
MIC (E. aerogenes 9306071; E. aerogenes 9306071, [PMBN] MIC/10): 4 µg/mL
MIC (E. aerogenes 9203076; E. aerogenes 9203076 (membrane impermeability), [PMBN] 0, Table 4a, in µg/mL): >32
MIC (E. aerogenes 9203076; E. aerogenes 9203076 (membrane impermeability), [PMBN] 100, Table 4a, in µg/mL): 16
MIC (E. aerogenes 9203076; E. aerogenes 9203076 (membrane impermeability), [PMBN] 200, Table 4a, in µg/mL): 12
MIC (E. aerogenes 9203076; E. aerogenes 9203076 (membrane impermeability), [PMBN] 300, Table 4a, in µg/mL): 4
MIC (E. aerogenes 9203076; E. aerogenes 9203076, [PMBN] 0, Table 3, in µg/mL): 32
MIC (E. aerogenes 9203076; E. aerogenes 9203076, [PMBN] MIC/5, in µg/mL): 2
MIC (E. aerogenes 9203076; E. aerogenes 9203076, [PMBN] MIC/8, in µg/mL): 4
MIC (E. aerogenes 9203076; E. aerogenes 9203076, [PMBN] MIC/10, in µg/mL): 4
MIC (E. aerogenes 9203076; Klebsiella aerogenes, 9203076, E. aerogenes 9203076 (porin−), [PMBN] 0, Table 4, read-out: MIC): 24 µg/mL
MIC (E. aerogenes 9203076; Klebsiella aerogenes, 9203076, E. aerogenes 9203076 (porin−), [PMBN] 150 μg/ml, Table 4, read-out: MIC): 3 µg/mL
MIC (E. aerogenes 9203076; Klebsiella aerogenes, 9203076, E. aerogenes 9203076 (porin−), [PMBN] 200 μg/ml, Table 4, read-out: MIC): 1.5 µg/mL
MIC (K. pneumoniae 1204034; K. pneumoniae 1204034 (membrane impermeability), [PMBN] 0, Table 4a): > 32 µg/mL
MIC (K. pneumoniae 1204034; K. pneumoniae 1204034 (membrane impermeability), [PMBN] 100, Table 4a): 12 µg/mL
MIC (K. pneumoniae 1204034; K. pneumoniae 1204034 (membrane impermeability), [PMBN] 200, Table 4a): 3 µg/mL
MIC (K. pneumoniae 1204034; K. pneumoniae 1204034 (membrane impermeability), [PMBN] 300, Table 4a): 2 µg/mL
MIC (K. pneumoniae 1204034; K. pneumoniae 1204034, [PMBN] 0, Table 3): 64 µg/mL
MIC (K. pneumoniae 1204034; K. pneumoniae 1204034, [PMBN] MIC/5): 4 µg/mL
MIC (K. pneumoniae 1204034; K. pneumoniae 1204034, [PMBN] MIC/8): 4 µg/mL
MIC (K. pneumoniae 1204034; K. pneumoniae 1204034, [PMBN] MIC/10): 8 µg/mL
MIC (K. pneumoniae 1204034; Klebsiella pneumoniae, 1204034, K. pneumoniae 1204034 (porin−), [PMBN] 0, Table 4, read-out: MIC): > 32 µg/mL
MIC (K. pneumoniae 1204034; Klebsiella pneumoniae, 1204034, K. pneumoniae 1204034 (porin−), [PMBN] 150 μg/ml, Table 4, read-out: MIC): 1.5 µg/mL
MIC (K. pneumoniae 1204034; Klebsiella pneumoniae, 1204034, K. pneumoniae 1204034 (porin−), [PMBN] 200 μg/ml, Table 4, read-out: MIC): 1 µg/mL
MIC (E. cloacae 9402034; E. cloacae 9402034 (membrane impermeability), [PMBN] 0, Table 4a): > 32 µg/mL
MIC (E. cloacae 9402034; E. cloacae 9402034 (membrane impermeability), [PMBN] 100, Table 4a): > 32 µg/mL
MIC (E. cloacae 9402034; E. cloacae 9402034 (membrane impermeability), [PMBN] 200, Table 4a): 12 µg/mL
MIC (E. cloacae 9402034; E. cloacae 9402034 (membrane impermeability), [PMBN] 300, Table 4a): 12 µg/mL
MIC (E. cloacae 9402034; E. cloacae 9402034, [PMBN] 0, Table 3): 64 µg/mL
MIC (E. cloacae 9402034; E. cloacae 9402034, [PMBN] MIC/5): 16 µg/mL
